Where a name gives a salt, the structure may show the parent alone.
Key:
[1] = well known, WO 86/03970; cited from earlier work
[2] = Stability of aqueous ibopamine solutions (ibopamine titer); type: physicochemical; details: aqueous solutions buffered at pH 4.5, room temperature

| period for which ibopamine titer remains substantially unchanged [2] [days] | Structure (SMILES) | mydriatic activity [1] |
| --- | --- | --- |
|  | CNCCc1ccc(OC(=O)C(C)C)c(OC(=O)C(C)C)c1 [ibopamine, epinine 3,4-0-diisobutyrate] | endowed with mydriatic activity |
| 20 to 25 | CNCCc1ccc(OC(=O)C(C)C)c(OC(=O)C(C)C)c1 [ibopamine hydrochloride, Ibopamine hydrochloride] |  |
